Experimental data published in publication PMC10714390, “Quinoline Compounds Targeting the c-Ring of ATP Synthase Inhibit Drug-Resistant Pseudomonas aeruginosa” (ACS Infectious Diseases, 2023).
Several values for one entry are separate records, joined by “and”; a condition that tells them apart may be missing. Equal values may be shown once.

What was measured:
[1] = tested on: drug-resistant P. aeruginosa BAA 2110; experiment: Antimicrobial susceptibility (broth microdilution), BAA 2110; assay type: cell-based, Pseudomonas aeruginosa; settings: for MIC: Pseudomonas aeruginosa, BAA2110, read-out: antibacterial activity (MIC) BAA 2110
Experimental: (§1) The following are general steps, unless otherwise noted. All steps were completed using aseptic techniques. All media and glassware were sterilized via an autoclave at 121 °C for 60 min. All agitation occurred at 160 rpm in a temperature-controlled console shaker (Excella E25) at 37 °C. Full-strength tryptic soy broth (TSB) was made by dissolving 30 g of BD Bacto TSB powder in 1 L of deionized water. Purchased and acquired bacterial strains used were E. coli (ATCC 25922), P. aeruginosa (ATCC 9027), drug-resistant P. aeruginosa from ATCC Panel MP-23 (BAA 2108, BAA 2109, BAA 2110), and P. aeruginosa efflux knockout GKCW120 (PΔ6)[6] provided by Zgurskaya and co-workers at the University of Oklahoma.
(§2) Susceptibility testing was performed in biological triplicate using the broth microdilution method as outlined by the Clinical and Laboratory Standards Institute. […] Briefly, to each well, 1 μL of compound in DMSO, 89 μL of TSB, and 10 μL of bacterial inoculum, grown from a single colony in 10 mL of TSB for 4–6 h, were added. After incubation for 12–15 h at 37 °C, absorbance at 590 nm was read on a Biotek Synergy HTX Multimode plate reader. Data were processed by background subtracting the media absorbance and then normalizing the data to full bacterial growth with the vehicle only. MIC is defined as the lowest concentration of antibiotic or antibiotic/adjuvant combination that achieves ≥85% growth inhibition, which corresponds to no visible growth.

[2] = target: T1, PA ATP synthase cIle65Phe mutant (Pseudomonas aeruginosa, UniProt Q9HT15, I65F); experiment: NADH-driven ATP synthesis inhibition, DK8/pASH20 cI65F membrane vesicles; assay type: biochemical; settings: for Hill coefficient of dose response fit, DK8/pASH20 cI65F vesicles: inhibition of ATP synthesis activity
T1 construct: expressed in transfected cells; host or cells: E. coli K-12 DK8 transformed with pASH20 carrying mutated atpE
Experimental: (§3) P. aeruginosa (ATCC 9027) was streaked onto a 10% TSB agar plate and incubated at room temperature for 72 h. A single colony was resuspended in 100 μL of H2O, and 5 μL was used as the DNA template for PCR with Q5 polymerase (NEB) and […] each of forward and reverse primers. Primers were complementary to regions flanking the atp operon and included sequences for HindIII and NdeI restriction sites (see the SI for primer sequences). The resulting 6.9 kbp DNA fragment was digested with HindIII and NdeI and ligated into digested vector pBR322 (New England Biolabs). The resultant pASH20(-i) plasmid contains a partial atpI gene. To complete the atpI gene, the HindII-XhoI fragment of pASH20(-i) was replaced with a synthetic fragment with a complete atpI (Twist Bioscience) to yield pASH20. The sequence of the entire operon was verified by Sanger DNA sequencing through the ligation sites. Subunit c mutations were introduced by exchanging the XhoI-BamHI fragment containing atpE with a synthetic fragment containing mutated atpE (Twist Bioscience).
(§4) Vesicles were prepared from P. aeruginosa and transformed E. coli cells as previously described.[22] Briefly, cells were grown in LB liquid medium at 37 °C with shaking and harvested by centrifugation after 7 h of growth. Cultures of transformant E. coli included 100 μg/mL ampicillin. Cells were disrupted in TMG buffer (50 mM Tris-HCl, MgCl2, 10% (v/v) glycerol, pH 7.5) using an Avestin B15 homogenizer at 19,000 psi. After unbroken cells and debris were cleared by centrifugation at 9000g, inverted vesicles were collected by centrifugation at 193,000g, resuspended in TMG buffer, and stored at −80 °C. Protein concentrations were determined using a modified Lowry assay.[25]
(§5) Continuous ATP synthesis activity of inverted membrane vesicles was measured using a luciferin/luciferase luminescence assay as previously described.[22] Inhibition of ATP synthesis activity by test compounds was determined using an end point assay essentially as previously described.[18],[26] In this assay, the synthesis reaction was initiated by 2.5 mM NADH, proceeded for 10 min, and was stopped with 1% trichloroacetic acid, 2 mM CCCP, and 10 mM EDTA. Samples from each reaction were diluted 500-fold prior to the addition of luciferase since quinoline compounds are known to inhibit luciferase.[27] This dilution was sufficient to minimize inhibition of luciferase (Figure S4). Each replicate set included a positive control containing DMSO with no compound and a negative control containing carbonyl cyanide m-chlorophenyl hydrazone. Luminescence values were corrected for the background by subtracting the negative control and then normalized to the positive control within the same replicate. Dose–response curves were fit using eq 1, where activity is the relative ATP synthesis activity, [I] is the concentration of inhibitor in μg/mL, and n is the Hill coefficient. [drawing 1] 1

[3] = tested on: EC electron transport chain; experiment: Electron transport activity (NADH-driven H+ pumping, ACMA quenching), E. coli DK8/pASH20 vesicles; assay type: biochemical, Escherichia coli; settings: for inhibition of EC ETC-driven H+ pumping, in words: 0-64 µg/mL, Figure S2; for Inhibition of the EC electron transport chain IC50: EC (DK8/pASH20) vesicles
Experimental: Determination of electron transport activity. In an opaque black 96-well plate, inverted membrane
vesicles from PA or E. coli DK8 pASH20 were added to HMK buffer containing 0.3 µg/mL 9-amino-6-chloro-
2-methoxyacridine (ACMA) and 0-64 µg/mL test compound in DMSO. After measurement of baseline
ACMA fluorescence for 60 s, redox-driven H+ pumping was initiated by addition of NADH to 0.8 mM, and
fluorescence quenching was monitored for 120 s before addition of nigericin to 0.5 µg/mL. Relative
activity is reported as the minimum fluorescence value normalized to the maximum fluorescence value
following addition of nigericin. […]

[4] = target: T2, PA ATP synthase (Pseudomonas aeruginosa, UniProt Q9HT15); experiment: NADH-driven ATP synthesis inhibition, PA inverted membrane vesicles; assay type: biochemical; settings: for Hill coefficient of dose response fit, PA vesicles: inhibition of ATP synthesis activity; for IC50: inverted membrane vesicles from PA 9027, NADH-driven, end point luminescence assay
T2 construct: Inverted membrane vesicles were prepared from PA 9027; endogenous in cells; host or cells: Pseudomonas aeruginosa ATCC 9027, inverted membrane vesicles
Experimental: as §4, §5

[5] = target: T3, PA ATP synthase cIle65Ala mutant (Pseudomonas aeruginosa, UniProt Q9HT15, I65A); experiment: NADH-driven ATP synthesis inhibition, DK8/pASH20 cI65A membrane vesicles; assay type: biochemical; settings: for IC50: ATP synthesis IC50, DK8/pASH20 cI65A vesicles, cI65A mutant, NADH-driven, luminescence assay; for Hill coefficient of dose response fit, DK8/pASH20 cI65A vesicles: inhibition of ATP synthesis activity
T3 construct: expressed in transfected cells; host or cells: E. coli K-12 DK8 transformed with pASH20 carrying mutated atpE
Experimental: as §3, §4, §5

[6] = tested on: P. aeruginosa efflux knockout GKCW120 (PΔ6); experiment: Antimicrobial susceptibility (broth microdilution), PΔ6 efflux knockout; assay type: cell-based, Pseudomonas aeruginosa; settings: for Antibacterial activity screening result, P∆6: at 128 µg/mL in DMSO; for antibacterial activity (MIC) PΔ6: n = 3, >85% reduction in growth at OD 590 nm; for antibacterial activity in words, PΔ6: summary of Table 1
Experimental: as §1, §2
Initial antibacterial activity screen of compounds 4, 5, and S1-S6
Compounds 4, 5, and S1-S6 were screened for initial antibiotic activity against a susceptible laboratory strain of EC (designated EC 25922), and non-virulent, biofilm forming strain of PA (designated PA 9027), and PD6 (efflux knockout strain6) at 128 µg/mL in DMSO. Sterilization and Antimicrobial Susceptibility Assay procedures utilized were the same as described in the methods.
Table S1. Antibacterial activity screening results for compounds 4, 5, and S1-S6 at 128 µg/mL
Table S1. Antibacterial activity screening results for compounds 4, 5, and S1-S6 at 128 µg/mL.

SMILES | MIC [1] [mg/L] | antibacterial activity in words, BAA 2110 ([1]; summary of Table 1) | IC50 [2] [µM] | Hill coefficient of dose response fit, DK8/pASH20 cI65F vesicles [2] | inhibition of EC ETC-driven H+ pumping, in words [3] | Inhibition of the EC electron transport chain IC50 [3] [mg/L] | Hill coefficient of dose response fit, PA vesicles [4] | IC50 [4] | IC50 [5] | Hill coefficient of dose response fit, DK8/pASH20 cI65A vesicles [5] | Antibacterial activity screening result, P∆6 [6] | antibacterial activity (MIC) PΔ6 [6] [mg/L] | antibacterial activity in words, PΔ6 [6] | fold reduction in IC50, cIle65Phe mutant relative to wild type ([2]; ATP synthesis inhibition, DK8/pASH20 vesicles)
CN(C)Cc1ccc(CNCc2cc3ccccc3nc2SCc2ccccc2)cc1 [Compound 5, 1-(4-((((2-(Benzylthio)quinolin-3-yl)methyl)amino)methyl)phenyl)-N,N-dimethylmethanamine] | > 128 | inactive | 8.18 | 1.8 | mildly inhibited | >64 | 0.8 | 1.64 µM | 13.3 µM | 1.7 | I | 16 | more potent | –
CSc1nc2ccccc2cc1CNCc1ccc(CN(C)C)cc1 [Compound 4, N,N-Dimethyl-1-(4-((((2-(methylthio)quinolin-3-yl)methyl)amino)methyl)phenyl)methanamine] | > 256 | – | 12.8 | 1.4 | mildly inhibited | 61 | 0.8 | 31.3 µM and 31.6 µM | 59.5 µM and 59.7 µM | 1.2 | I | 64 to 128 | weakly inhibit | greater than 6 fold
